Assay results taken from patent US8859505B2, “Cysteine protease inhibitors” (Medivir UK Ltd, priority 2010, dated 2014).

Columns and labels:
[1] = reference markers for permeability categories; cited from earlier work
human cathepsin S = molecular target: T1, human cathepsin S (Homo sapiens, UniProt P25774); assay: Cathepsin S Ki determination; format: biochemical; conditions: baculovirus-expressed enzyme, boc-Val-Leu-Lys-AMC substrate, pH 6.5; read-out: Ki Cat. S
T1 construct: made in house; host or cells: baculovirus expression system
T1 sequence (P25774 115-331): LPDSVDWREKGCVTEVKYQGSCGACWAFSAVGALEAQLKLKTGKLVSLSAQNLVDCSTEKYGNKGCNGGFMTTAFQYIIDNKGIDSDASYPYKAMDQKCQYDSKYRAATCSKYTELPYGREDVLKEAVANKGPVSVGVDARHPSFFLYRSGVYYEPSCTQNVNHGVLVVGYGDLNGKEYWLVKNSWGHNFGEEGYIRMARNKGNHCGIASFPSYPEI
Experimental: The assay uses baculovirus-expressed human cathepsin S and the boc-Val-Leu-Lys-AMC fluorescent substrate available from Bachem in a 384 well plate format, in which 7 test compounds can be tested in parallel with a positive control comprising a known cathepsin S inhibitor comparator.
280 μL/well of 12.5% DMSO are added to rows B-H of two columns of a 96 deep well polypropylene plate. 70 μL/well of substrate is added to row A. 2×250 μL/well of assay buffer (100 mM Na phosphate, 100 mM NaCl, pH 6.5) is added to row A, mixed, and double diluted down the plate to row H.
100 μL/well of assay buffer is added to columns 2-5 and 7-12 of 4 rows of a 96 well V bottom polypropylene plate. 200 μL/well of assay buffer is added to columns 1 and 6.
2 μl of each 10 mM test compound is added to a separate well on row A, columns 1-10. Add 90 μl assay buffer containing 1 mM DTT and 2 nM cathepsin S to each well of rows B-H and 180 μl to row A. Mix row A using a multichannel pipette and double dilute to row G. Mix row H and read in the fluorescent spectrophotometer. The readings are Prism data fitted to the competitive inhibition equation, setting S=100 μM and KM=100 μM to obtain an estimate of the up to a maximum of 100 μM.
The second test compound is added to column 6 of the top row, the third to column 1 of the second row etc. Add 1 μL of comparator to column 6 of the bottom row. Mix column 1 and double dilute to column 5. Mix column 6 and double dilute to column 10.
Using an 8-channel multistepping pipette set to 5×10 μL, distribute 10 μL/well of substrate to the 384 well assay plate. Distribute the first column of the substrate dilution plate to all columns of the assay plate starting at row A. The tip spacing of the multichannel pipette will correctly skip alternate rows. Distribute the second column to all columns starting at row B.
Using a 12-channel multistepping pipette set to 4×10 μL, distribute 10 μL/well of inhibitor to the 384 well assay plate. Distribute the first row of the inhibitor dilution plate to alternate rows of the assay plate starting at A1. The tip spacing of the multichannel pipette will correctly skip alternate columns. Similarly, distribute the second, third and fourth rows to alternate rows and columns starting at A2, B1 and B2 respectively.
Mix 20 mL assay buffer and 20 μL 1M DTT. Add sufficient cathepsin S to give 2 nM final concentration.
Using the a distributor such as a Multidrop 384, add 30 μL/well to all wells of the assay plate and read in fluorescent spectrophotometer such as an Ascent.
Fluorescent readings, (excitation and emission wavelengths 390 nm and 460 nm respectively, set using bandpass filters) reflecting the extent of enzyme cleavage of the fluorescent substrate, […] the inhibitor, are linear rate fitted for each well.
Fitted rates for all wells for each inhibitor are fitted to the competitive inhibition equation using SigmaPlot 2000 to determine V, Km and Ki values.
(§1) Potential inhibitors are screened using the above assay with variable concentrations of test compound. Reactions were initiated by addition of enzyme to buffered solutions of substrate and inhibitor. Ki values were calculated according to equation 1.
(§2) [formula] where v0 is the velocity of the reaction, V is the maximal velocity, S is the concentration of substrate with Michaelis constant of KM, and I is the concentration of inhibitor.

[2] = molecular target: T2, human recombinant cathepsin K (Homo sapiens, UniProt P43235); assay: Determination of cathepsin K proteolytic catalytic activity (Ki); format: biochemical; conditions: fluorogenic substrate H-D-Ala-Leu-Lys-AMC; read-out: Ki Cat. K
T2 construct: made in house; host or cells: not fixed: E coli, Pichia or Baculovirus systems named as options
T2 sequence (P43235 115-329): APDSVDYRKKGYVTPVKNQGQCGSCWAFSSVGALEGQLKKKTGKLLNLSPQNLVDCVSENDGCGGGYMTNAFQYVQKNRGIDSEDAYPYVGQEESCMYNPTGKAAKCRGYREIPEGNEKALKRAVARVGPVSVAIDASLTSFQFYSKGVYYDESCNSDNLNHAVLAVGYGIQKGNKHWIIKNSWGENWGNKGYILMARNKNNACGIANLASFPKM
Experimental: Convenient assays for cathepsin K are carried out using human recombinant enzyme, such as that described in PDB. • ID BC016058 standard; mRNA; HUM; 1699 BP. • DE Homo sapiens cathepsin K (pycnodysostosis), mRNA (cDNA clone MGC:23107 • RX MEDLINE;. RX PUBMED; 12477932. • DR RZPD; IRALp962G1234. • DR SWISS-PROT; P43235;
The recombinant cathepsin K can be expressed in a variety of commercially available expression systems including E coli, Pichia and Baculovirus systems. The purified enzyme is activated by removal of the prosequence by conventional methods.
Standard assay conditions for the determination of kinetic constants used a fluorogenic peptide substrate, typically H-D-Ala-Leu-Lys-AMC, and were determined in either 100 mM Mes/Tris, pH 7.0 containing 1 mM EDTA and 10 mM 2-mercaptoethanol or 100 mMNa phosphate, imM EDTA, 0.1% PEG4000 pH 6.5 or 100 mM Na acetate, pH 5.5 containing 5 mM EDTA and 20 mM cysteine, in each case optionally with […] as stabiliser. The enzyme concentration used was 5 nM. The stock substrate solution was prepared at 10 mM in DMSO. Screens were carried out at a fixed substrate concentration of 60 μM and detailed kinetic studies with doubling dilutions of substrate from 250 μM. The total DMSO concentration in the assay was kept below 3%. All assays were conducted at ambient temperature. Product fluorescence (excitation at 390 nm, emission at 460 nm) was monitored with a Labsystems Fluoroskan Ascent fluorescent plate reader. Product progress curves were generated over 15 minutes following generation of AMC product.
as §1, §2

human cathepsin L = human cathepsin L (Homo sapiens, UniProt P07711); assay: Cathepsin L Ki; format: biochemical; conditions: H-D-Val-Leu-Lys-AMC substrate, pH5.5; read-out: Ki Cat. L
Sequence of human cathepsin L (P07711 114-333): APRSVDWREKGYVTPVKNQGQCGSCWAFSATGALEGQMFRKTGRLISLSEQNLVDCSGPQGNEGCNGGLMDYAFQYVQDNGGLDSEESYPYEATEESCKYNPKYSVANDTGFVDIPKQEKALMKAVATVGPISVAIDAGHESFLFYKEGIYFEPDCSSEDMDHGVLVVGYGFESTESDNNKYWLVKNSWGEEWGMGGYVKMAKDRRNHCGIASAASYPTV
Experimental: The procedure above with the following amendments is used for the determination of Ki for cathepsin L.
The enzyme is commercially available human cathepsin L (for example Calbiochem). The substrate is H-D-Val-Leu-Lys-AMC available from Bahcem. The assay buffer is 100 mM sodium acetate 1 mM EDTA, pH5.5) The DMSO stock (10 mM in 100% DMSO) is diluted to 10% in assay buffer. Enzyme is prepared at 5 nM concentration in assay buffer plus 1 mM dithiothreitol just before use. 2 μL of 10 mM inhibitor made up in 100% DMSO is dispensed into row A. 10 μL of 50 μM substrate (=1/200 dilution of 10 mM stock in DMSO, diluted in assay buffer).
as §1, §2

Compound	Ki (human cathepsin S) [nM]	Ki [2] [nM]	Ki (human cathepsin L) [nM]	absorption in man (%) [1] [%]
OC[C@@H](O)[C@@H](O)[C@H](O)[C@H](O)CO [Mannitol]	–	–	–	16
NC(=O)C(=O)C1(NC(=O)[C@H](CC2(F)CCCC2)NC(=O)c2ccccn2)CCC1 [Example A34]	0.77	180	710	–
NC(=O)C(=O)C1(NC(=O)[C@H](CC2(F)CCCC2)NC(=O)C2(C(F)(F)F)CC2)CC1 [Example A38]	7.6	4600	> 200000	–
CCC(=O)N[C@@H](CC1(C)CCCC1)C(=O)NC1(C(=O)C(N)=O)CCC1 [Example A4]	4.9	2300	12000	–
NC(=O)C(=O)C1(NC(=O)[C@H](CC2(F)CCCC2)NC(=O)C2(C(F)(F)F)CC2)CCC1 [Example A25]	3.6	1300	14000	–
NC(=O)C(=O)C1(NC(=O)[C@H](CC2CCC2)NC(=O)C2CC2(F)F)CCC1 (single isomer, unassigned) [Example A43-1]	1.3	280	4200	–
CC1(C[C@H](NC(=O)c2ccc(F)cc2)C(=O)NC2(C(=O)C(N)=O)CCC2)CCCC1 [Example A3]	0.1	140	180	–
NC(=O)C(=O)[C@]1(NC(=O)[C@H](CC2(F)CCCC2)NC(=O)c2cccc(-n3ccnc3)c2)C[C@H](F)C1 [Example A1, N-[1-(1-Aminooxalyl-3-fluoro-cyclobutylcarbamoyl)-2-(1-fluoro-cyclopentyl)-ethyl]-3-imidazol-1-yl-benzamide]	0.084	500	230	–
CC1(C[C@H](NC(=O)C(C)(C)F)C(=O)NC2(C(=O)C(N)=O)CC(F)(F)C2)CCCC1 [Example A31]	2.3	990	11000	–
NC(=O)C(=O)C1(NC(=O)[C@H](CC2(F)CCCC2)NC(=O)c2ccc(F)cc2F)CCC1 [Example A17]	0.67	490	490	–
CN(Cc1cnc2nc(N)nc(N)c2n1)c1ccc(C(=O)N[C@@H](CCC(=O)O)C(=O)O)cc1 [Methotrexate]	–	–	–	20
CCOC(=O)NC(CC1(F)CCCC1)C(=O)NC1(C(=O)C(N)=O)CCC1 (stereo not drawn) [Example C6, [1-(1-Aminooxalyl-cyclobutylcarbamoyl)-2-(1-fluorocyclopentyl)-ethyl]-carbamic acid ethyl ester]	2.4	960	3700	–
N[C@@H](Cc1ccccc1)C(=O)O [L-Phenylalanine]	–	–	–	100
CC1(C[C@H](NC(=O)C(C)(C)C(F)(F)F)C(=O)NC2(C(=O)C(N)=O)CCC2)CCCC1 [Example A24]	1.2	300	3000	–
Cc1ccc(C(=O)N[C@@H](CC2(F)CCCC2)C(=O)NC2(C(=O)C(N)=O)CCC2)cn1 [Example A7]	0.88	650	260	–
CC1(C[C@H](NC(=O)C2CC2)C(=O)NC2(C(=O)C(N)=O)CCC2)CCCC1 [Example A2, Cyclopropanecarboxylic acid [1-(1-aminooxalyl-cyclobutylcarbamoyl)-2-(1-methyl-cyclopentyl)-ethyl]-amide]	0.3	630	1800	–
NC(=O)C(=O)C1(NC(=O)[C@H](CC2(F)CCCC2)NC(=O)C2(C(F)(F)F)CCC2)CCC1 [Example A28]	31	15000	23000	–

Continued, in another order:

Ki (human cathepsin S) [nM]	Ki [2] [nM]	Ki (human cathepsin L) [nM]	Compound	absorption in man (%) [1] [%]
2.1	640	2800	CC(C)OC(=O)N[C@@H](CC1(F)CCCC1)C(=O)NC1(C(=O)C(N)=O)CCC1 [Example C14]	–
3.7	1200	2600	CC(C)(C)OC(=O)N[C@@H](CC1(F)CCCC1)C(=O)NC1(C(=O)C(N)=O)CC1 [Example C11]	–
1.1	720	1700	CC1(C[C@H](NC(=O)OC(C)(C)C)C(=O)NC2(C(=O)C(N)=O)CCC2)CCCC1 [Example C4]	–
6.4	2500	21000	CCOC(=O)N[C@@H](CC1(F)CCCC1)C(=O)NC1(C(=O)C(N)=O)CCCC1 [Example C7, (S)-ethyl(1-((1-(2-amino-2-oxoacetyl)cyclopentyl)amino)-3-(1-fluorocyclopentyl)-1-oxopropan-2-yl)carbamate]	–
2.8	1100	5300	CCOC(=O)N[C@@H](CC1(F)CCCC1)C(=O)N[C@]1(C(=O)C(N)=O)C[C@@H](F)C1 [Example C5, [1-(1-Aminooxalyl-3-fluoro-cyclobutylcarbamoyl)-2-(1-fluoro-cyclopentyl)-ethyl]-carbamic acid ethyl ester]	–
1.3	440	1700	CC(C)(C)OC(=O)NC(CC1(F)CCCC1)C(=O)NC1(C(=O)C(N)=O)CC(F)C1 (stereo not drawn) [Example C3]	–
2.7	1900	3200	CC1(C[C@H](NC(=O)OC(C)(C)C)C(=O)NC2(C(=O)C(N)=O)CC2)CCCC1 [Example C12]	–
12	770	11000	CC(C)(C)C[C@H](NC(=O)OC(C)(C)C)C(=O)N[C@]1(C(=O)C(N)=O)C[C@@H](F)C1 [Example C1, Tert-butyl(S)-1-((1r,3S)-1-(2-amino-2-oxoacetyl)-3-fluorocyclobutylamino)-4,4-dimethyl-1-oxopentan-2-ylcarbamate]	–
